Measurements from patent US6645983B1, “Pharmaceutical compositions comprising 4-quinolones for treating cancers” (Laboratoire L. Lafon, priority 1999, dated 2003).

Key:
SW1088 = assay: MTT test, cytotoxic activity on non-clonogenic cell lines; format: cell-based; conditions: Homo sapiens, 10^−5 M, 72 hours of incubation, control condition = 100%, mean value, read-out: mean optical density as percentage of control, SW1088
Experimental: (§1) The principle of the MTT test is based on the mitochondrial reduction, by the metabolically active live cells, of the yellow-colored product MTT (3-(4,5-dimethylthiazol-2-yl)-2,5-diphenyltetrazolium bromide) to a blue-colored product, formazan. The amount of formazan thus obtained is directly proportional to the amount of live cells present in the culture well(s). This amount of formazan is measured by spectrophotometry.
(§2) The cell lines are maintained as a monolayer culture at 37° C. in stoppered culture dishes containing MEM 25 MM HEPES (Minimum Essential Medium) base medium. This medium is suited to the growth of a range of various mammalian diploid or primary cells. This medium is then supplemented with:
(§3) The 12 human cancer cell lines which were used were obtained from the American Type Culture Collection (ATCC, Rockville, Md., USA). These 12 cell lines are:
SW1088 (code ATCC: HTB-12) which is an astro-cytoma,
(§4) Experimentally, 100 μl of a cell suspension containing 20 000 to 50 000 (depending on the cell type used) cells/ml of culture medium are inoculated -in 96-well flat-bottomed multi-well plates and are left to stand in an incubator at 37° C., 5% CO2 and 70% humidity. After an incubation time of 24 hours, the culture medium is replaced with 100 μl of fresh medium containing either the various test compounds—at concentrations varying from 10^−5 to 10^−10 M—or the solvent having served for dissolving the products to be tested (control condition). […] The microplates are thus incubated for 3 hours at 37° C., then centrifuged for 10 minutes at 400 g. The yellowish solution of MTT is removed and the blue formazan crystals formed in the cell region are dissolved in 100 μl or DMSO. The microplates are then shaken for 5 minutes. […] Software incorporated in the spectrophotometer calculates the average optical density values and the standard deviation (SD) and standard error of mean (SEM) values.

[1] = Determination of the maximum tolerated dose (MTD); conditions: B6D2F1/Jico, mouse, in vivo, ip; single intraperitoneal administration, doses 2.5 to 160 mg/kg, survival over 14 days
Experimental: The evaluation of the maximum tolerated dose was performed on 4- to 6-week-old B6D2F1/Jico mice. The compounds were administered intraperitoneally at increasing doses ranging from 2.5 to 160 mg/kg. The value of the MTD (expressed in mg/kg) is determined from the observation of the survival rate of the animals over a 14-day period after a single administration of the product under consideration. The change in weight of the animals is also monitored during this period. When the MTD value is greater than 160 mg/kg, the MTD value is considered as being 160 mg/kg by default.

U-373MG = assay: MTT test, cytotoxic activity on non-clonogenic cell lines; format: cell-based; conditions: Homo sapiens, U373 MG; 10^−5 M, 72 hours of incubation, control condition = 100%, mean value; read-out: mean optical density as percentage of control, U-373MG
Experimental: as §1, §2, §3, §4

HCT-15 = assay: as above; format: cell-based; conditions: Homo sapiens, 10^−5 M, 72 hours of incubation, control condition = 100%, mean value, read-out: mean optical density as percentage of control, HCT-16
Experimental: as §1, §2, §3, §4

PC-3 = assay: as above; format: cell-based; conditions: Homo sapiens, 10^−5 M, 72 hours of incubation, control condition = 100%, mean value, read-out: mean optical density as percentage of control, PC-3
Experimental: as §1, §2, §3, §4

U-87MG = assay: as above; format: cell-based; conditions: Homo sapiens, U-87 MG; 10^−5 M, 72 hours of incubation, control condition = 100%, mean value; read-out: mean optical density as percentage of control, U-87MG
Experimental: as §1, §2, §3, §4

LoVo = assay: as above; format: cell-based; conditions: Homo sapiens, 10^−5 M, 72 hours of incubation, control condition = 100%, mean value, read-out: mean optical density as percentage of control, LoVo
Experimental: as §1, §2, §3, §4

A549 = assay: as above; format: cell-based; conditions: Homo sapiens, 10^−5 M, 72 hours of incubation, control condition = 100%, mean value, read-out: mean optical density as percentage of control, A549
Experimental: as §1, §2, §3, §4

T-47D = assay: as above; format: cell-based; conditions: Homo sapiens, T47D; 10^−5 M, 72 hours of incubation, control condition = 100%, mean value; read-out: mean optical density as percentage of control, T-47D
Experimental: as §1, §2, §3, §4

A-427 = assay: as above; format: cell-based; conditions: Homo sapiens, 10^−5 M, 72 hours of incubation, control condition = 100%, mean value, read-out: mean optical density as percentage of control, A-427
Experimental: as §1, §2, §3, §4

MCF7 = assay: as above; format: cell-based; conditions: Homo sapiens, 10^−5 M, 72 hours of incubation, control condition = 100%, mean value, read-out: mean optical density as percentage of control, MCF7
Experimental: as §1, §2, §3, §4

T24 = assay: as above; format: cell-based; conditions: Homo sapiens, T-24; 10^−5 M, 72 hours of incubation, control condition = 100%, mean value; read-out: mean optical density as percentage of control, T24
Experimental: as §1, §2, §3
(§5) J82 (code ATCC: HTB-1) and T24 (code ATCC: HTB-4) which are two bladder cancers,
as §4

J82 = assay: as above; format: cell-based; conditions: Homo sapiens, 10^−5 M, 72 hours of incubation, control condition = 100%, mean value, read-out: mean optical density as percentage of control, J82
Experimental: as §1, §2, §3, §5, §4

Compound | viability at 10 µM (SW1088) | MTD at 14 day [1] | viability at 10 µM (U-373MG) | viability at 10 µM (HCT-15) | viability at 10 µM (PC-3) | viability at 10 µM (U-87MG) | viability at 10 µM (LoVo) | viability at 10 µM (A549) | viability at 10 µM (T-47D) | viability at 10 µM (A-427) | viability at 10 µM (MCF7) | viability at 10 µM (T24) | viability at 10 µM (J82)
COc1ccc(-c2cn(C)c3cc(OC)cc(OC)c3c2=O)cc1 [CRL8340, 5,7-Dimethoxy-3-(4-methoxyphenyl)-1-methyl-1,4-dihydro-4-quinolinone] | 84% | > 160 mg/kg | 97.9% | 92.5% | 84.8% | 87.6% | 93% | 84% | 66.1% | 84.2% | 72.3% | 82.8% | 90.2%
COc1ccc(-c2cn(C)c3cc(OC)cc(N4CCCC4)c3c2=O)cc1 [CRL8434, 7-Methoxy-3-(4-methoxyphenyl)-1-methyl-5-pyrrolidino-1,4-dihydro-4-quinolinone] | 99.9% | > 160 mg/kg | 92.2% | 101% | 113% | 89.7% | 106% | 99% | 85.8% | 110% | 96.2% | 98.7% | 99.3%
COc1ccc(-c2cn(CC#N)c3cc(OC)cc(OC)c3c2=O)cc1 [CRL8372, [5,7-Dimethoxy-3-(4-methoxyphenyl)-4-oxo-1,4-dihydro-1-quinolinyl]acetonitrile] | 98.1% | > 160 mg/kg | 94.8% | 84.3% | 110% | 92.9% | 83.9% | 93.4% | 65.7% | 93.9% | 96.6% | 81.2% | 93%
COc1ccc(-c2c[nH]c3c(OC)ccc(O)c3c2=O)cc1 [CRL8391, 5-Hydroxy-8-methoxy-3-(4-methoxyphenyl)-1,4-dihydro-4-quinolinone] | 92.5% | > 160 mg/kg | 93.5% | 80.6% | 80% | 74% | 87.2% | 88.3% | 99.3% | 80.5% | 97.3% | 101% | 99.6%
COc1ccc2c(=O)c(-c3ccccc3)c[nH]c2c1 [CRL8359, 7-Methoxy-3-phenyl-1,4-dihydro-4-quinolinone] | 140% | > 160 mg/kg | 41.2% | 59.9% | 123% | 114% | 30.9% | 73.9% | 41.2% | 25.8% | 65.8% | 34.7% | 52.2%
